The record followed here is patent publication US11339130B1 (Blade Therapeutics, Inc., priority 2016, dated 2022).

Each structure is given as a SMILES string.

What all share (type): biochemical
One assay has as its target T1, Human Calpain 1/NS1 (Homo sapiens, UniProt P07384).
T1 sequence (P07384 1-714): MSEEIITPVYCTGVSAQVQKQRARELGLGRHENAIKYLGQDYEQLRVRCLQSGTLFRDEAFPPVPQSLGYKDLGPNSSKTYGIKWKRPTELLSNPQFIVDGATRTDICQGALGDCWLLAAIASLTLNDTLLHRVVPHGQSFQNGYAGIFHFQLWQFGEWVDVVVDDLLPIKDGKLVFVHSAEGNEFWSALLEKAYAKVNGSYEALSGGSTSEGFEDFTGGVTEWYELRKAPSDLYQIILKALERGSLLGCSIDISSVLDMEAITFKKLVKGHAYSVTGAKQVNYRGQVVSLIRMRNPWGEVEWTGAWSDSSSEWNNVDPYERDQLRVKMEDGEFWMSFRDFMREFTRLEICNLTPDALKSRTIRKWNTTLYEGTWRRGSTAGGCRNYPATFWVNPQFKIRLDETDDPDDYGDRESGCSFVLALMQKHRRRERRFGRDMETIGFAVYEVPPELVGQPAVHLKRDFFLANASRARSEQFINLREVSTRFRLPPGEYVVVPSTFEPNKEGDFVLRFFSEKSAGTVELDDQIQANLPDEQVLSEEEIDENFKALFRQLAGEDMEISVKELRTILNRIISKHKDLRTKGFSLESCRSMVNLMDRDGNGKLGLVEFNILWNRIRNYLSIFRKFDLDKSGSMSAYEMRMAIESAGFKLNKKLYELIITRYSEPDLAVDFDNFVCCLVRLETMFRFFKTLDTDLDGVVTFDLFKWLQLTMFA
T1 sequence (P04632 1-268 partner): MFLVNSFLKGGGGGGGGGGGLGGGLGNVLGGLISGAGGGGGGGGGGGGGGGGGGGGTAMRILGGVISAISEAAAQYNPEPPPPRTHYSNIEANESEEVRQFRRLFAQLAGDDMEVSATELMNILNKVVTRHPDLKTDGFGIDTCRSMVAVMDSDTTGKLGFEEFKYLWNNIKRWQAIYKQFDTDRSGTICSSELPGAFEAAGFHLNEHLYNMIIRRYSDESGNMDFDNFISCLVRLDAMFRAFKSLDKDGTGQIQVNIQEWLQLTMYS
Description: Calpain inhibition continuous fluorescence (FRET) assay, Human Calpain 1/NS1. Conditions: Column A; read-out: Human Calpain 1/NS1 IC50. The gist of the method:
(§1)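 Buffer 50 mM Tris pH 7.5/100 mM NaCl/1 mM DTT; enzyme + cpd preinc 25C; start w/ FRET substrate + CaCl2; kinetic 490/520 nm, 10 min; slopes 1-5 min; 4-PL IC50.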

In another assay the target is T2, Human Calpain 2/NS1 (Homo sapiens, UniProt P17655).
T2 sequence (P17655 1-700): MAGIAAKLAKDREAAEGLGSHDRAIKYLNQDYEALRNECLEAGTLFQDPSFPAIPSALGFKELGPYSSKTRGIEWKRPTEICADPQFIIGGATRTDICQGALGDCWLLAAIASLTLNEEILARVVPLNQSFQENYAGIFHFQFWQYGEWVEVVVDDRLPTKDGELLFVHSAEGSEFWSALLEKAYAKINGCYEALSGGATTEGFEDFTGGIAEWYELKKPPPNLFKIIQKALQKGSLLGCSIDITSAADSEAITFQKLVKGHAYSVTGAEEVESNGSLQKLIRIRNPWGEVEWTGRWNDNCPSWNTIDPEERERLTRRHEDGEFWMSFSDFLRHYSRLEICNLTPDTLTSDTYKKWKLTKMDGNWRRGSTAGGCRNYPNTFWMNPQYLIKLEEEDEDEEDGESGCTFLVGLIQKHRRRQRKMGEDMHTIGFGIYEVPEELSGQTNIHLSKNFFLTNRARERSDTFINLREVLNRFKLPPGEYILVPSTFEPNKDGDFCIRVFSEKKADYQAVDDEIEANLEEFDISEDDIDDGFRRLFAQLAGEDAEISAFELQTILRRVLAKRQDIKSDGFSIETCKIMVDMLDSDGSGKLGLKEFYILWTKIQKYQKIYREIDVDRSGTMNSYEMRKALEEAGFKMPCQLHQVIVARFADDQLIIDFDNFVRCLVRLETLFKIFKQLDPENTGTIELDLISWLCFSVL
T2 sequence (P04632 1-268 partner): T1 sequence (P04632 1-268 partner)
Put plainly: Calpain inhibition continuous fluorescence (FRET) assay, Human Calpain 2/NS1. Particulars: Column B; read-out: Human Calpain 2/NS1 IC50. In a few lines:
as §1

Another assay addresses T3, Human Calpain 9/NS1 (Homo sapiens, UniProt O14815).
T3 sequence (O14815 1-690): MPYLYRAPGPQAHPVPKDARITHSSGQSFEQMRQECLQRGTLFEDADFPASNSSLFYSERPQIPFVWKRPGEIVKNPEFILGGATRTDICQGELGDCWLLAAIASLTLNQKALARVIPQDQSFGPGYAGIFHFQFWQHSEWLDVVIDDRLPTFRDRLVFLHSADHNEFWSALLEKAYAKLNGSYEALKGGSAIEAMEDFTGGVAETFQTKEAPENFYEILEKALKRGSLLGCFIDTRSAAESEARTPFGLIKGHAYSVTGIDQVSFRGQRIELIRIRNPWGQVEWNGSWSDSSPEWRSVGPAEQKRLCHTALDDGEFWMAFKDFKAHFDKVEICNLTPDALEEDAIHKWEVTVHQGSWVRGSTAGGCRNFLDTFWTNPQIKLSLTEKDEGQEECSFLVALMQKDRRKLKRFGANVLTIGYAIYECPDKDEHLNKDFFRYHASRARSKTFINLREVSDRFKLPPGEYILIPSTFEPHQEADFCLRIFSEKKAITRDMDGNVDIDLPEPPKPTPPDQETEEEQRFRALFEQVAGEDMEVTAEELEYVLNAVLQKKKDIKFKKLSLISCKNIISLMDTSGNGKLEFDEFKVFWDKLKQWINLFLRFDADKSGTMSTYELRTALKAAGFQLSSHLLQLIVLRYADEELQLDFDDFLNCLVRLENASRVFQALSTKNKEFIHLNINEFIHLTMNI
T3 sequence (P04632 1-268 partner): T1 sequence (P04632 1-268 partner)
Put plainly: Calpain inhibition continuous fluorescence (FRET) assay, Human Calpain 9/NS1. Particulars: Column C; read-out: Human Calpain 9/NS1 IC50. In a few lines: as §1

Consider `Cc1cc(C(=O)N[C@@H](Cc2ccccc2)C(=O)C(=O)NC2CC2)n(-c2cnccn2)n1` [Compound 85, (S)—N-(4-(cyclopropylamino)-3,4-dioxo-1-phenylbutan-2-yl)-3-methyl-1-(pyrazin-2-yl)-1H-pyrazole-5-carboxamide], for which the IC50 on Human Calpain 1/NS1, on Human Calpain 2/NS1 and at Human Calpain 9/NS1 was less than 3 µM throughout.

As for `Cc1cc(C(=O)N[C@@H](Cc2ccccc2)C(=O)C(=O)NC2CC2)n(-c2ncccn2)n1` [Compound 65, (S)—N-(4-(cyclopropylamino)-3,4-dioxo-1-phenylbutan-2-yl)-3-methyl-1-(pyrimidin-2-yl)-1H-pyrazole-5-carboxamide], the IC50 on Human Calpain 1/NS1, on Human Calpain 2/NS1 and at Human Calpain 9/NS1 was greater than 10 µM each time.

Consider `Cc1cc(C(=O)N[C@@H](Cc2ccccc2)C(=O)C(N)=O)n(-c2cncc3ccccc23)n1` [Compound 133, (S)—N-(4-amino-3,4-dioxo-1-phenylbutan-2-yl)-1-(isoquinolin-4-yl)-3-methyl-1H-pyrazole-5-carboxamide], for which the IC50 at Human Calpain 1/NS1, on Human Calpain 2/NS1 and on Human Calpain 9/NS1 was less than 3 µM throughout.

As for `Cc1cc(C)cc(C[C@H](NC(=O)c2c(C)noc2-c2ccccc2)C(=O)C(N)=O)c1` [Compound 97, (S)—N-(4-amino-1-(3,5-dimethylphenyl)-3,4-dioxobutan-2-yl)-3-methyl-5-phenylisoxazole-4-carboxamide], the IC50 at Human Calpain 1/NS1, at Human Calpain 2/NS1 and at Human Calpain 9/NS1 was less than 3 µM throughout.

As for `Cc1cc(C(=O)N[C@@H](Cc2ccccc2)C(=O)C(N)=O)nn1-c1nc(-c2ccccc2)cs1` [Compound 80, (S)—N-(4-amino-3,4-dioxo-1-phenylbutan-2-yl)-5-methyl-1-(4-phenylthiazol-2-yl)-1H-pyrazole-3-carboxamide], the IC50 on Human Calpain 1/NS1 was 3 to 10 µM; on Human Calpain 2/NS1 it was less than 3 µM; on Human Calpain 9/NS1 it was 3 to 10 µM.

With `Cc1cc(C(=O)N[C@@H](Cc2ccccc2)C(=O)C(N)=O)n(-c2cncnc2)n1` [Compound 138, (S)—N-(4-amino-3,4-dioxo-1-phenylbutan-2-yl)-3-methyl-1-(pyrimidin-5-yl)-1H-pyrazole-5-carboxamide], the IC50 at Human Calpain 1/NS1, on Human Calpain 2/NS1 and on Human Calpain 9/NS1 was less than 3 µM throughout.

Take `O=C[C@H](Cc1ccccc1)NC(=O)c1scnc1-n1ncc2ccccc21` [Compound 22, (S)-4-(1H-indazol-1-yl)-N-(1-oxo-3-phenylpropan-2-yl)thiazole-5-carboxamide]: the IC50 at Human Calpain 1/NS1, at Human Calpain 2/NS1 and on Human Calpain 9/NS1 was less than 3 µM each time.

With `C=CC[C@H](NC(=O)c1cn(C)nc1-c1ccccc1)C(=O)C(N)=O` [Compound 195, N-(1-amino-1,2-dioxohex-5-en-3-yl)-1-methyl-3-phenyl-1H-pyrazole-4-carboxamide], the IC50 at Human Calpain 1/NS1 is less than 3 µM; at Human Calpain 2/NS1, 3 to 10 µM; on Human Calpain 9/NS1, less than 3 µM.

Regarding `Cc1ncn(-c2ccccc2)c1C(=O)N[C@@H](Cc1ccccc1)C(=O)C(N)=O` [Compound 290, (S)—N-(4-amino-3,4-dioxo-1-phenylbutan-2-yl)-4-methyl-1-phenyl-1H-imidazole-5-carboxamide], the IC50 at Human Calpain 1/NS1, on Human Calpain 2/NS1 and at Human Calpain 9/NS1 was less than 3 µM each time.

Consider `O=C(NC1CC1)C(=O)[C@H](Cc1ccccc1)NC(=O)c1cncn1-c1ccn(-c2ccccc2)n1` [Compound 42, (S)—N-(4-(cyclopropylamino)-3,4-dioxo-1-phenylbutan-2-yl)-1-(1-phenyl-1H-pyrazol-3-yl)-1H-imidazole-5-carboxamide], for which the IC50 at Human Calpain 1/NS1 was less than 3 µM; on Human Calpain 2/NS1, less than 3 µM; on Human Calpain 9/NS1, greater than 10 µM.

Consider `NC(=O)C(=O)[C@H](Cc1ccccc1)NC(=O)c1cncn1-c1ccccc1` [Compound 7, (S)—N-(4-amino-3,4-dioxo-1-phenylbutan-2-yl)-1-phenyl-1H-imidazole-5-carboxamide], for which the IC50 on Human Calpain 1/NS1, at Human Calpain 2/NS1 and on Human Calpain 9/NS1 was less than 3 µM each time.

For `O=C(NC1CC1)C(=O)[C@H](Cc1ccccc1)NC(=O)c1cncn1-c1ccccn1` [Compound 41, (S)—N-(4-(cyclopropylamino)-3,4-dioxo-1-phenylbutan-2-yl)-1-(pyridin-2-yl)-1H-imidazole-5-carboxamide], the figures for the IC50 at Human Calpain 1/NS1, on Human Calpain 2/NS1 and at Human Calpain 9/NS1 were 3 to 10 µM, less than 3 µM and 3 to 10 µM, respectively.

Turning to `O=C(NC1CC1)C(=O)[C@H](Cc1ccccc1)NC(=O)c1cncn1-c1ccc(-c2ncco2)cn1` [Compound 89, (S)—N-(4-(cyclopropylamino)-3,4-dioxo-1-phenylbutan-2-yl)-1-(5-(oxazol-2-yl)pyridin-2-yl)-1H-imidazole-5-carboxamide], the IC50 on Human Calpain 1/NS1 is less than 3 µM; at Human Calpain 2/NS1, less than 3 µM; at Human Calpain 9/NS1, 3 to 10 µM.

As for `NC(=O)C(=O)C(Cc1ccccc1)NC(=O)c1ccn(Cc2ccccc2)n1` (stereo not drawn) [Compound 284, N-(4-amino-3,4-dioxo-1-phenylbutan-2-yl)-1-benzyl-1H-pyrazole-3-carboxamide], the IC50 at Human Calpain 1/NS1, at Human Calpain 2/NS1 and on Human Calpain 9/NS1 was greater than 10 µM each time.

As to `CC[C@@H](C)[C@H](NC(=O)c1c(C)noc1-c1ccccc1)C(=O)C(N)=O` [Compound 73, N-((3S,4R)-1-amino-4-methyl-1,2-dioxohexan-3-yl)-3-methyl-5-phenylisoxazole-4-carboxamide], the figures for the IC50 at Human Calpain 1/NS1, on Human Calpain 2/NS1 and at Human Calpain 9/NS1 were less than 3 µM, less than 3 µM and greater than 10 µM, respectively.

Turning to `Cc1cc(C(=O)N[C@@H](Cc2ccccc2)C(=O)C(N)=O)n(-c2cccc3ccccc23)n1` [Compound 38, (S)—N-(4-amino-3,4-dioxo-1-phenylbutan-2-yl)-3-methyl-1-(naphthalen-1-yl)-1H-pyrazole-5-carboxamide], the IC50 at Human Calpain 1/NS1, on Human Calpain 2/NS1 and at Human Calpain 9/NS1 was less than 3 µM in each case.
